Measurements taken from publication PMC7287031 (Pharmacology Research & Perspectives, 2020).
Read-outs that look alike come from different tables or passages of the source.

How the values were obtained:
[1] = Rat pharmacokinetic studies: plasma PK of ribociclib after single i.v. or oral dose; type: in vivo; conditions: for Vd: read-out: Vss; for half-life: read-out: t½ (converted)
Description: ADME studies (including QWBA in pigmented and non‐pigmented rats) using radiolabeled ribociclib were conducted in rat and dog. Relevant institutional and national guides for the care and use of laboratory animals were followed. […]

[2] = target: T1, CYP3A4 (Homo sapiens, UniProt P08684); test: Enzyme kinetics with recombinant CYP3A4 and scaling to HLM; type: in vitro ADME
T1 construct: purchased BD Biosciences
Description: In vitro incubations were carried out in 100‐mM potassium phosphate buffer (pH 7.4) and 5‐mM MgCl2 with a total volume of 200 µL. Substrate and either human liver microsomes (HLM, BD Biosciences, mixed gender pool of n = 50) or recombinant human enzymes (BD Biosciences) were added and pre‐incubated for 3 minutes at 37°C. The reaction was started by addition of a fresh solution of NADPH (1 mmol/L final concentration). The samples were incubated at 37°C with agitation of 500 rpm. For incubations with CYP2A6, CYP2C9, CYP2C18, and CYP4A11, the phosphate buffer was replaced by TRIS buffer (100 mmol/L, pH 7.4) and for flavin‐containing monooxygenases (FMOs), a glycine buffer (50 mM, pH 9.5) was used.
The enzymatic reaction was stopped and the protein was precipitated by addition of an equal volume of methanol. […] The supernatant was withdrawn. Aliquots were analyzed by LSC and the supernatant was diluted with water to obtain a final solution containing less than 20% of the organic solvent. For samples of low substrate concentration, supernatants were evaporated to dryness under nitrogen, then re‐suspended in water containing less than 20% of methanol. Samples were analyzed by HPLC combined with radiodetection.

[3] = Placental transfer (fetal vs maternal plasma), rabbit embryofetal development study; type: in vivo; conditions: female, fetal plasma (relative to maternal plasma), rabbits, 3 hours post dose, Day 20 postcoitum, read-out: Fetal plasma concentration as % of maternal plasma concentration
[4] = female, Hanover Wistar, iv, rat f (3), i.v., 4.2 mg base/kg
[5] = female, rat f (3), po, 11.1 mg base/kg
[6] = female, rat f (4), po, 51.2 mg base/kg
[7] = male, Hanover Wistar, rat m (3), po, 9.8 mg base/kg
[8] = male, Sprague Dawley, 5 mg/kg, rat m (3), po, 5.0 mg base/kg
[9] = male, Sprague Dawley, iv, 2 mg/kg, rat m (2), i.v., 2.0 mg base/kg

T1 sequence (P08684 whole entry): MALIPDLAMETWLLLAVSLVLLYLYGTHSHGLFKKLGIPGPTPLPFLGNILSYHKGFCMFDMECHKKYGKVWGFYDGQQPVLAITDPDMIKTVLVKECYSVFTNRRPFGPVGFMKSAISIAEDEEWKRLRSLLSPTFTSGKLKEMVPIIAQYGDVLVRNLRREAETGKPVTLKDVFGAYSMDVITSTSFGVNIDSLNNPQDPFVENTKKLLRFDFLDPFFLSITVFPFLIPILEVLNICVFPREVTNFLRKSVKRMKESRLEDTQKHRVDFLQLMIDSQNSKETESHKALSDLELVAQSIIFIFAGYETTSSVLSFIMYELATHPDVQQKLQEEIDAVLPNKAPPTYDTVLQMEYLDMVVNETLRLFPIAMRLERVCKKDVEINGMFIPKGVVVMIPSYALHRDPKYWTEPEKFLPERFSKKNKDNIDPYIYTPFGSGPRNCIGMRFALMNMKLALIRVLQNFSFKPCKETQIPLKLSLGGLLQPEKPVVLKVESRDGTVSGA

Molecule `CN(C)C(=O)c1cc2cnc(Nc3ccc(N4CCNCC4)cn3)nc2n1C1CCCC1` [ribociclib, Ribociclib] has a Vd [1, 4] of 12.2 L/kg, a half-life [1, 4] of 1.9 h and an AUC(0-t) ([1]; female, Hanover Wistar, rat, iv, 4.2 mg base/kg) of 508 ng·h/mL. For the same molecule, the clearance ([1]; female, iv, rat f (3), 4.2 mg base/kg) was 130 mL/min/kg, the Cmax [1, 5] was 59.1 ng/mL and the Tmax [1, 5] was 2 h. It also gave an AUC(0-t) ([1]; female, rat f (3), po, 11.1 mg base/kg, AUC interval 24 h) of 360 ng·h/mL, a Cmax [1, 6] of 1090 ng/mL and a Tmax [1, 6] of 0.3 h. For the same molecule, the half-life [1, 6] was 2 h, the AUC(0-t) ([1]; female, rat, po, 51.2 mg base/kg) was 3100 ng·h/mL and the clearance ([1]; male, Hanover Wistar, iv, rat m (3), 4.1 mg base/kg) was 46.7 mL/min/kg. For the same molecule, the half-life ([1]; male, Hanover Wistar, iv, rat m (3), i.v., 4.1 mg base/kg) was 3.2 h, the Cmax [1, 7] was 130 ng/mL and the Tmax [1, 7] was 4 h. It also gave an AUC(0-t) ([1]; male, Hanover Wistar, rat m (3), po, 9.8 mg base/kg, AUC interval 24 h) of 1340 ng·h/mL, an AUC(0-t) ([1]; male, Hanover Wistar, rat, iv, 4.1 mg base/kg) of 1440 ng·h/mL and a Cmax [1, 8] of 126 ng/mL. The Tmax [1, 8] was 2 h, the bioavailability [1, 8] was 55% and the Vd [1, 9] was 9.9 L/kg. It also gave a half-life [1, 9] of 2.8 h, an AUC(0-t) ([1]; male, Sprague Dawley, rat, iv, 2 mg/kg) of 587 ng·h/mL and an AUC(0-t) ([1]; male, Sprague Dawley, rat, po, 5 mg/kg) of 672 ng·h/mL. The clearance ([1]; male, iv, rat m (2), 2.0 mg base/kg) was 51.7 mL/min/kg, the Vd ([1]; male, iv, rat m (3), i.v., 4.1 mg base/kg) was 7.9 L/kg and the bioavailability ([1]; male, rat m (3), po, 9.8 mg base/kg) was 37%. For the same molecule, the “fm,CYP” value ([2]; CYP3A4, share of total CYP-mediated metabolism in HLM) was 97%, the fumic ([2]; CYP3A4 incubation) was 0.83 and the Vmax ([2]; recombinant CYP3A4, substrate inhibition model) was 12.3 ± 5.2 pmol/min/pmol. The Kp at 3 h [3] was 0.06.
